Results reported in US8653023B1, “Dual beneficial effect of dopamine enhancing and neuroprotective actions of PKC delta inhibitors for treatment of Parkinson's disease” (Iowa State University Research Foundation, Inc., priority 2006, dated 2014).
Read-outs that look alike come from different tables or passages of the source.

Assays:
SRC kinase = SRC kinase (Homo sapiens, UniProt P12931); details: cited from earlier work
[1] = system: primary mesencephalic dopaminergic neuronal cells; type: cell-based, mice; details: 10 μM MPP+, 48 hrs
Method: Primary mesencephalic neuronal cultures were prepared from the ventral mesencephalon of gestational 16-18-day-old mice embryos as described previously (Yang et al., 2004). Mesencephalic tissues were dissected and maintained in ice-cold Ca^2+-free HESS and then dissociated in HESS solution containing trypsin-EDTA (0.25%) for 20 min at 37° C. The dissociated cells were then plated at equal density (0.5×10^6 cells) in 30-mm-diameter tissue culture wells precoated with poly-D-lysine (1 mg/ml). Cultures were maintained in a chemically defined medium consisting of neurobasal medium fortified with B-27 supplements, L-glutamine (500 μM), penicillin (100 IU/ml), and streptomycin (100 μg/ml) (Life Technologies). The cells were maintained in a humidified CO2 incubator (5% CO2, 37° C.) for 24 hr and then treated with cytosine arabinoside (10 μM) for 24 hr to inhibit glial cell proliferation. Half of the culture medium was replaced every 2 days. Approximately 6-7-day-old cultures were used for experiments. […]
After treatment, the primary mesencephalic neurons were fixed with 4% paraformaldehyde and processed for immunocytotochemical staining. […] Then the coverslips containing stained cells were washed with PBS, mounted on a slide, and viewed under a Nikon inverted fluorescence microscope (Model TE-2000U); images were captured with a SPOT digital camera (Diagnostic Instruments, Sterling Heights, Mich.).
We used Metamorph software (Universal Imaging, Version 5.0) for measurement of TH^+ cells and neuronal processes in primary neurons from each coverslip. For measurement of TH cell count, the images were first thresholded, and then neuronal count and volume were measured using the Integrated Morphometry Analysis (IMA) function. The data were logged to an Excel spreadsheet with defined row and column positions and then analyzed. […] The data were exported to an Excel spreadsheet and analyzed. TH^+ neurons and their processes were counted in at least six individual cultures for each treatment. This method is a modified version of methodology recently used for quantification of neuronal processes.

[2] = system: MPTP-treated C57 black mice; experiment: TH protein level in SN of MPTP-treated mice (Western blot); type: in vivo; details: all doses of rottlerin, MPTP 30 mg/kg 5 days
Method: Six to 8-week-old […] mice weighing 30 g were housed in standard conditions: constant temperature (22±1° C.), humidity (relative, 30%) and a 12-h light/dark cycle, and were allowed free access to food and water. The animals and protocol procedures were approved and supervised by the Committee on Animal Care (COAC) at the Iowa State University. Rottlerin was dissolved in 1% dimethyl sulfoxide (DMSO) and was administered intraperitoneally at various doses. An equal volume of DMSO was given to controls. Rottlerin and DMSO administrations were started 24 h before the injections of the MPTP and continued for 5 days in the MPTP model. In the chronic regimens of MPTP administration, MPTP in phosphate-buffered saline (PBS) was injected intraperitoneally at doses of 30 mg/kg, once a day. Mice were sacrificed 2 days after the MPTP injections, and the striata were dissected for catecholamine analysis. […]
brain lysates containing equal amounts of protein were loaded in each lane and separated on a 10-12% SDS-PAGE gel as described previously (Kaul, Kanthasamy et al. 2003). […] Secondary antibody-bound proteins were detected using Amersham's ECL chemiluminescence kit. […] Western blot images were captured with a Kodak […] imaging system and data were analyzed using 1D Kodak imaging analysis software.

Akt = details: cited from earlier work
[3] = system: bone marrow-derived macrophages; details: cited from earlier work
dopaminergic N27 cells = details: cited from earlier work
PKCε, ζ, or η = details: cited from earlier work
macrophages = details: pretreatment, cited from earlier work
[4] = system: tyrosine hydroxylase (TH); experiment: TH activity (DOPA levels after NSD-1015) in PC12 cells; type: cell-based; details: 2 mM NSD-1015
Method: PC12 cells, differentiated N27 dopaminergic cells and primary mesencephalic neurons were exposed to 1-10 μM rottlerin for the duration of the experiment. DMSO (0.01%) was used as vehicle control. PKCδ-DN- and Lac Z-expressing N27 cells were only treated with 0.01% DMSO. […] Untreated or vehicle treated cells were used as control samples.

PKCδ = details: pretreatment, dose-dependent; cited from earlier work
CAM kinase III = CAM kinase III (Homo sapiens, UniProt O00418); details: cited from earlier work
NZM mice = details: in vivo treatment; cited from earlier work

Chain of SRC kinase (P12931 whole entry): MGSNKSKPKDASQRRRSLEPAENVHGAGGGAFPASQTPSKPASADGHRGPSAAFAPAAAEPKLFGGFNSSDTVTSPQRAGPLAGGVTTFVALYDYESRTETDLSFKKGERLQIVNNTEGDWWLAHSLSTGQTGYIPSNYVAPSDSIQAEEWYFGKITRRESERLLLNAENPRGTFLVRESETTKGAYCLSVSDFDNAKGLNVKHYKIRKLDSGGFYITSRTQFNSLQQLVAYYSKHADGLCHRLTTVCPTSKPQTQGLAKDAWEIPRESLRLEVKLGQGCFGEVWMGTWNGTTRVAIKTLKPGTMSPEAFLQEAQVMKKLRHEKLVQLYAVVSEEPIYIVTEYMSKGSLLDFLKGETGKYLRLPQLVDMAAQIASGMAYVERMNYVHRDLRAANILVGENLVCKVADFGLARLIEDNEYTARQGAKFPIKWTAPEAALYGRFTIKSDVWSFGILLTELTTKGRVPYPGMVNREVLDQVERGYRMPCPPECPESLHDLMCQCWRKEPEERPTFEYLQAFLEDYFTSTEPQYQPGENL
Chain of CAM kinase III (O00418 whole entry): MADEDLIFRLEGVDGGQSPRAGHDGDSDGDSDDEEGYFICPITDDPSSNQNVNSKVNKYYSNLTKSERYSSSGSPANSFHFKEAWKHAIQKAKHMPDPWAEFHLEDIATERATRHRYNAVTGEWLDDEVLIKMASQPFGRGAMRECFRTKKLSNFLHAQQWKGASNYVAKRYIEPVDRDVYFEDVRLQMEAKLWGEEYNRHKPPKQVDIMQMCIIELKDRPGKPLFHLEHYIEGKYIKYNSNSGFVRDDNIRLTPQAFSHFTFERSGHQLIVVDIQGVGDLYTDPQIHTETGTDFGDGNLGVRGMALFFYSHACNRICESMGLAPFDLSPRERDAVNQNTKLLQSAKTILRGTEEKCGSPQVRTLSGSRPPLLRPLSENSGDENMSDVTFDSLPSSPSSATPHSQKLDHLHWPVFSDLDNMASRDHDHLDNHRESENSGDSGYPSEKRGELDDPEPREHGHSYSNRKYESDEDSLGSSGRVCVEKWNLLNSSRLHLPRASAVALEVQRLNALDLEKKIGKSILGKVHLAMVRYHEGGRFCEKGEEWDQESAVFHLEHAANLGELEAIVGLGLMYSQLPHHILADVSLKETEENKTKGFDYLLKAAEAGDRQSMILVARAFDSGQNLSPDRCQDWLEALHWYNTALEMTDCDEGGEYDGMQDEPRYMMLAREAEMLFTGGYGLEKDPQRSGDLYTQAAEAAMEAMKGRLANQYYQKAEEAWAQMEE

CC(=O)c1c(O)c(C)c(O)c(Cc2c(O)c3c(c(C(=O)/C=C/c4ccccc4)c2O)OC(C)(C)C=C3)c1O [rottlerin]
inhibition (SRC kinase): inactive | MPP+-induced degeneration of TH+ neurons and their processes ([1]; 0.3 μM rottlerin): significantly blocked | MPP+-induced degeneration of TH+ neurons and their processes ([1]; 1 μM rottlerin): significantly blocked | TH protein level in SN [2]: attenuate loss of TH protein | TPA-induced dephosphorylation of Akt (Akt): inhibited | silica-induced apoptosis as measured by DNA fragmentation [3]: reduced | H2O2 and MPP+-induced apoptotic cell death (genistein: also PKCδ cleavage, kinase activation) (dopaminergic N27 cells): dramatically inhibited | fold more potent on PKCδ than on PKCε, ζ, or η (PKCε, ζ, or η): 13- to 33 fold | suppression of UV-B-induced DNA fragmentation (macrophages; 1 μM): approximately 30% | suppression of UV-B-induced DNA fragmentation (macrophages; 10 μM): ~50% | TH activity ([4]; 1 μM rottlerin 3 hr): 2091.09±80.17 pg DOPA/10^6 cells/hr | TH activity ([4]; 3 μM rottlerin 3 hr): 3045±75.31 pg DOPA/10^6 cells/hr | MMT induced accumulation of PKCδ cleavage product and increased kinase activity (PKCδ): prevented | inhibiting concentration (CAM kinase III): 3 to 6 µM | exacerbation of autoimmunity by silica exposure (NZM mice): significantly decreased
